US20230099344A1, “COMPOUNDS AND METHODS FOR THE TARGETED DEGRADATION OF IRAK-4” (Arvinas Operations, Inc., priority 2021, published 2023)

Key:
Type in all cases: cell-based
IRAK-4 [1] = target: T1, IRAK-4 (Homo sapiens, UniProt Q9NWZ3); test: IRAK-4 ELISA, OCI-Ly10 degradation; set-up: endogenous in cells; details: treated overnight; for Dmax: OCI-Ly10, OCI-Ly10 cells; for DC50: OCI-Ly10 cells
T1 sequence (Q9NWZ3 1-460): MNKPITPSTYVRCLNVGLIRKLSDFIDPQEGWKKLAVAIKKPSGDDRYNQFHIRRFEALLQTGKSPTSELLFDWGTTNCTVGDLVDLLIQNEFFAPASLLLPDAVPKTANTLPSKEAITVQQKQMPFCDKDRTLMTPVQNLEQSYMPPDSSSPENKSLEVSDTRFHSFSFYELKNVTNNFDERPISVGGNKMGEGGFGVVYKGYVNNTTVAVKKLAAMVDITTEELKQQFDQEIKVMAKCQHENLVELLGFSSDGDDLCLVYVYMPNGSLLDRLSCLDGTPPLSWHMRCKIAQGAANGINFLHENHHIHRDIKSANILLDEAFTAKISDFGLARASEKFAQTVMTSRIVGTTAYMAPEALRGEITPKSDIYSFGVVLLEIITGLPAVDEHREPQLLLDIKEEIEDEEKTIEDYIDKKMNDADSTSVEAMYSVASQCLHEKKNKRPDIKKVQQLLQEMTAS
In short: (§1)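 Readout: IRAK-4 protein level in cell lysate, sandwich ELISA. Cells: OCI-Ly10 at 1×10^6/ml or PBMC at 2×10^6/ml, compound added same day, overnight incubation.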

IL6 [2] = test: IL-1β stimulated IL6 inhibition assay in PBMC; details: human PBMCs, IL-1β stimulation, compound overnight, IL6 by MSD after 24 hrs; for IC50: read-out: IL1β stim IL6 inhibition IC50; for Emax: read-out: IL1β stim IL6 inhibition Ymax
Procedure: (§2) IL-1β, LPS, or R848 Stimulated IL6 Inhibition and IL-1β Stimulated IL8 Inhibition Assay
(§3) Human PBMC cells were seeded at 2.0×10^6 cells/mL, treated with compound overnight, and dosed with the EC50 concentration of each stimulant (either IL-1B. LPS, or R848) was determined for each donor. After 24 hrs, media was collected and analyzed by MSD for IL6 and/or IL8 levels.

IRAK-4 [3] = target: T1, IRAK-4; test: IRAK-4 ELISA, PBMC degradation; set-up: endogenous in cells; host or cells: PBMC; details: treated overnight
In short: as §1

IL8 = test: IL-1β stimulated IL8 inhibition assay in PBMC; details: human PBMCs, IL-1β stimulation, compound overnight, IL8 by MSD after 24 hrs; for IC50: read-out: IL1β stim IL8 inhibition IC50; for Emax: read-out: IL1β stim IL8 inhibition Ymax
Procedure: as §2, §3

IL6 [4] = test: LPS stimulated IL6 inhibition assay in PBMC; details: Homo sapiens, PBMC, 24 h, human PBMCs, LPS stimulation, compound overnight, IL6 by MSD after 24 hrs
In short: (§4)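 Read-out: MSD quantification of IL6 or IL8 in media collected 24 hrs after stimulation. Human PBMCs (2.0×10^6 cells/mL) received compound overnight before stimulant dosing at an EC50 concentration determined per donor.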

IL6 [5] = test: R848 stimulated IL6 inhibition assay in PBMC; details: PBMC, human PBMCs, R848 stimulation, compound overnight, IL6 by MSD after 24 hrs
In short: as §4

SMILES	Dmax (IRAK-4 [1]) [%]	DC50 (IRAK-4 [1]) [nM]	IC50 (IL6 [2]; Homo sapiens, PBMC, 24 h) [nM]	DC50 (IRAK-4 [3]) [nM]	Dmax (IRAK-4 [3]) [%]	PBMC DC90 (IRAK-4 [3])	IC50 (IL8) [nM]	IC50 (IL6 [4]; read-out: LPS stim IL6 inhibition IC50) [nM]	IC50 (IL6 [5]; read-out: R848 stim IL6 inhibition IC50) [nM]	IC50 (IL6 [2]) [nM]	Emax (IL6 [2]; PBMC) [%]	Emax (IL8) [%]	Dmax (IL6 [4]; read-out: LPS Stim IL6 inhibition Dmax) [%]	Dmax (IL6 [5]; Homo sapiens, 24 h, read-out: R848 stim IL6 inhibition Dmax) [%]
CC(C)Oc1cc2c(cc1NC(=O)c1cnn3cccnc13)CN(C1CCN(CC3CN(c4ccc5c(c4)C(=O)N(C4CCC(=O)NC4=O)C5=O)C3)CC1)C2=O (stereo not drawn) [Example 5]	≥ 90	< 10	10 to 50	1 to 5	80 to 90	5 nM	50 to 100	–	–	–	80 to 90	80 to 90	–	–
CC(C)Oc1cc2c(cc1NC(=O)c1cnn3cccnc13)CN(C1CCN(C3CN(c4ccc5c(c4)C(=O)N(C4CCC(=O)NC4=O)C5=O)C3)CC1)C2=O (stereo not drawn) [Example 59]	≥ 90	< 10	10 to 50	1 to 5	≥ 90	B (B represents a DC90 value ≥10.0 nM and <25.0 nM)	50 to 100	–	–	–	≥ 90	70 to 80	–	–
CC(C)Oc1cc2c(cc1NC(=O)c1cnn3cccnc13)CN([C@H]1CC[C@@H](N3CCN(c4ccc5c(c4)C(=O)N(C4CCC(=O)NC4=O)C5=O)CC3)CC1)C2=O (stereo partly drawn) [Example 67]	–	–	10 to 50	1 to 5	≥ 90	C (C represents a DC90 value ≥25.0 nM and <50 nM)	≥ 100	–	–	–	≥ 90	≥ 90	–	–
CC(C)Oc1cc2c(cc1NC(=O)c1cnn3cccnc13)CN(C1CCN(CC3CCN(c4cc5c(cc4F)C(=O)N(C4CCC(=O)NC4=O)C5=O)CC3)CC1)C2=O (stereo not drawn) [Example 13]	–	–	10 to 50	< 1	≥ 90	C (C represents a DC90 value ≥25.0 nM and <50 nM)	≥ 100	–	–	–	≥ 90	≥ 90	–	–
CN(C1CN(c2ccc3c(c2)C(=O)N(C2CCC(=O)NC2=O)C3=O)C1)[C@H]1CC[C@H](n2cc3cc(NC(=O)c4cnn5cccnc45)c(OCC4CC4)cc3n2)CC1 (stereo partly drawn) [Example 336]	–	–	< 10	< 1	≥ 90	A (A represents a DC90 value <10.0 nM)	10 to 50	–	–	–	≥ 90	70 to 80	–	–
O=C1CCC(N2Cc3cc(N4CCC(CN5CCC(N6Cc7cc(NC(=O)c8cnn9cccnc89)c(OCC8CC8)cc7C6=O)CC5)CC4)ccc3C2=O)C(=O)N1 (stereo not drawn) [Example 22]	–	–	< 10	< 1	80 to 90	A (A represents a DC90 value <10.0 nM)	10 to 50	–	–	–	≥ 90	70 to 80	–	–
CC(C)Oc1cc2c(cc1NC(=O)c1cnn3cccnc13)CN(C1CCC(N(C)C3CN(c4ccc5c(c4)CN(C4CCC(=O)NC4=O)C5=O)C3)CC1)C2=O (stereo not drawn) [Example 314]	–	–	< 10	< 1	80 to 90	A (A represents a DC90 value <10.0 nM)	10 to 50	–	–	–	≥ 90	70 to 80	–	–
CC(C)Oc1cc2c(cc1NC(=O)c1cnn3cccnc13)CN(C1CCN(CC3(F)CN(c4ccc5c(c4)C(=O)N(C4CCC(=O)NC4=O)C5=O)C3)CC1)C2=O (stereo not drawn) [Example 57, N-(2-(1-((1-(2-(2,6-dioxopiperidin-3-yl)-1,3-dioxoisoindolin-5-yl)-3-fluoroazetidin-3-yl)methyl)piperidin-4-yl)-6-isopropoxy-1-oxoisoindolin-5-yl)pyrazolo[1,5-a]pyrimidine-3-carboxamide]	≥ 90	10 to 50	–	< 1	≥ 90	A (A represents a DC90 value <10.0 nM)	–	10 to 50	50 to 100	–	–	–	70 to 80	≥ 90
O=C1CCC(N2C(=O)c3ccc(N4CCC(CN5CCC(N6Cc7cc(NC(=O)c8cnn9cccnc89)c(N8CCOCC8)cc7C6=O)CC5)CC4)cc3C2=O)C(=O)N1 (stereo not drawn) [Example 31]	80 to 90	< 10	–	1 to 5	≥ 90	B (B represents a DC90 value ≥10.0 nM and <25.0 nM)	–	–	–	≥ 100	≥ 90	–	–	–

Further lines, with some results ahead:

Dmax (IRAK-4 [1]) [%]	DC50 (IRAK-4 [1]) [nM]	IC50 (IL6 [2]; Homo sapiens, PBMC, 24 h) [nM]	DC50 (IRAK-4 [3]) [nM]	Dmax (IRAK-4 [3]) [%]	PBMC DC90 (IRAK-4 [3])	IC50 (IL8) [nM]	IC50 (IL6 [4]; read-out: LPS stim IL6 inhibition IC50) [nM]	IC50 (IL6 [5]; read-out: R848 stim IL6 inhibition IC50) [nM]	IC50 (IL6 [2]) [nM]	SMILES	Emax (IL6 [2]; PBMC) [%]	Emax (IL8) [%]	Dmax (IL6 [4]; read-out: LPS Stim IL6 inhibition Dmax) [%]	Dmax (IL6 [5]; Homo sapiens, 24 h, read-out: R848 stim IL6 inhibition Dmax) [%]
–	–	< 10	< 1	≥ 90	A (A represents a DC90 value <10.0 nM)	10 to 50	–	–	–	O=C1CCC(N2Cc3cc(N4CC(N5CCC(n6cc7cc(NC(=O)c8cnn9cccnc89)c(OCC8CC8)cc7n6)CC5)C4)ccc3C2=O)C(=O)N1 (stereo not drawn) [Example 283]	≥ 90	< 70	–	–
–	–	< 10	< 1	≥ 90	A (A represents a DC90 value <10.0 nM)	≥ 100	–	–	–	CC(C)Oc1nc2c(cc1NC(=O)c1cnn3cccnc13)CN(C1CCN(CC3CN(c4ccc5c(c4)C(=O)N(C4CCC(=O)NC4=O)C5=O)C3)CC1)C2=O (stereo not drawn) [Example 398]	≥ 90	–	–	–
–	–	10 to 50	1 to 5	≥ 90	A (A represents a DC90 value <10.0 nM)	50 to 100	–	–	–	CC(C)Oc1cc2c(cc1NC(=O)c1cnn3cccnc13)CN([C@H]1CC[C@H](N3CCN(c4ccc5c(c4)C(=O)N(C4CCC(=O)NC4=O)C5=O)CC3)CC1)C2=O (stereo partly drawn) [Example 66]	≥ 90	70 to 80	–	–
–	–	< 10	< 1	≥ 90	6 nM	10 to 50	–	–	–	CC(C)Oc1cc2c(cc1NC(=O)c1cnn3cccnc13)CN(C1CCN(CC3CCN(c4ccc5c(c4)CN(C4CCC(=O)NC4=O)C5=O)CC3)CC1)C2=O (stereo not drawn) [Example 6]	≥ 90	80 to 90	–	–
–	–	≥ 100	5 to 10	80 to 90	D (D represents a DC90 value ≥50 nM)	≥ 100	–	–	–	CC(C)Oc1nc2c(cc1NC(=O)c1cnn3cccnc13)CN(C1CCN(CCc3ccc4c(c3)C(=O)N(C3CCC(=O)NC3=O)C4=O)CC1)C2=O (stereo not drawn) [Example 400]	≥ 90	–	–	–
